# In article PMC4445981, “The glutamate transport inhibitor DL-Threo-β-Benzyloxyaspartic acid (DL-TBOA) differentially affects SN38- and oxaliplatin-induced death of drug-resistant colorectal cancer cells” (BMC Cancer, 2015):
# Tests used:
# Assay type in all cases: cell-based, human
# [1] = test system: cellular reduced glutathione (GSH); assay: Cellular GSH level; details: 24 h
# Method: Fig. 4 Effect of glutamate transporter inhibition on cellular GSH levels. a Basal intracellular GSH levels were measured as described in Materials and Methods, and normalized to total protein in the samples. b-c Normalized basal GSH levels under control conditions, in HCT116 and LoVo parental and resistant cells after 24 h of treatment with 0.8 μM SN38 or 20 μM oxaliplatin, in absence or presence of DL-TBOA (350 μM) as shown. * p < 0.05 vs untreated control group (n = 5). One-way ANOVA followed by Dunnett post-test
# Cells were seeded in 24-well plates (10^4 cells per well), treated the next day with chemotherapy and/or DL-TBOA and incubated for 24 h. Medium was removed and cells were washed twice with ice-cold PBS, which was removed and 500 μl ice-cold 1 % Sulfosalicylic acid was added per well. Cells were incubated on ice for at least 10 min. After centrifugation (1 min, 15,000 g), 10 μl lysate was used to determine total GSx content. To measure GSSG content, 130 μl sample was mixed with 55 μl 0.2 M Tris (pH 9) and 5 μl 2-Vinylpyridine. Tubes were vortexed carefully and incubated for at least 1 h at room temperature. 10 μl of this mix was mixed first with 90 μl of water in a 96-well plate and then with a reaction mix (0.1 M sodium phosphate buffer pH 7.5 containing 1 mM EDTA, 10 mM NADPH, 10 mM DTNB and 0.05 μl Glutathione reductase, 2U/μl). Measurements were taken every 30 s for 10 min in an ELISA plate reader (Thermo Scientific MultiScan FC) at 405 nm absorbance. GSH values were obtained by subtraction of GSSG values from GSx values.
# p21^WAF1/Cip (p21) = assay: p21 protein level by Western blotting; details: for p21 protein level: 24 h, 0.8 μM SN38 or 20 μM oxaliplatin
# Method: (§1) Cells were grown to a confluence of 60-80 % and treated with chemotherapy, siRNA- or plasmid transfection as indicated. Cells were washed once in PBS, lysed in lysis buffer (1 % SDS, 0.1 M Tris pH 7.5, and 1 mM Na3VO4), sonicated, and protein content determined (DC assay, BioRad). Lysates were mixed 2:1with NuPage LDS sample buffer (Invitrogen). SDS-PAGE was carried out in NOVEX chambers with NuPAGE 10 % Bis-Tris gels under reducing and denaturing conditions, using BenchMark protein ladder (Invitrogen), and 15 μg protein per lane. Proteins were transferred to PVDF membranes, which were Ponceau S stained, blocked for 1 h at 37 °C in 5 % nonfat dry milk in TBST (0.01 M Tris/HCl, 0.15 M NaCl, 0.1 % Tween 20, pH 7.4), incubated overnight at 4 °C with primary antibodies diluted in blocking buffer, washed in TBST, incubated with secondary antibodies for 1 h, washed in TBST, and developed using BCIP/NBT (KPL). Bands were scanned and quantified using UN-SCAN-IT (Silk Scientific).
# Supplementary file 12885_2015_1405_MOESM3_ESM.tiff: Additional file 3: Figure S3. Effects of DL-TBOA on cell death and survival parameters after chemotherapy treatment of HCT116 cells. Parental and drug-resistant HCT116 cell lines seeded in 6-well dishes were exposed to SN38 (0.8 μM) or oxaliplatin (20 μM), alone or in combination with 350 μM DL-TBOA as indicated, for 24 h. Equal amounts of protein per lane were separated by SDS-PAGE and the protein levels of p21, and PARP-1 (full-length and cleaved, the latter indicated by arrowheads) were determined by Western blotting. Top: Representative Western blots, with p150 as loading control. Bottom: Densitometric quantifications based on 3 independent experiments per condition. Data are means with S.E.M. error bars of 3 independent experiments. *) p < 0.05, **) p < 0.01, ***) p < 0.001,****) p < 0.0001 compared to the control group without drug or TBOA treatment; #) p < 0.05 compared to controls without TBOA treatment. Two-way ANOVA with Tukey post-test.
# p53 = p53 protein level by Western blotting; details: 24 h; for p53 protein level: 0.8 μM SN38 or 20 μM oxaliplatin
# Method: Fig. 5 Effects of DL-TBOA on cell death and survival parameters after chemotherapy treatment. Parental and drug-resistant HCT116 (a) and LoVo (b) cell lines were exposed to SN38 (0.8 μM) or oxaliplatin (20 μM), alone or in combination with 350 μM DL-TBOA as indicated, for 24 h. Equal amounts of protein per lane were separated by SDS-PAGE and the protein level of p53 was determined by Western blotting. Top: Representative Western blots, with p150 as loading control. Bottom: Densitometric quantifications based on 3 independent experiments per condition. Data are means with S.E.M. error bars of 3 independent experiments. *) p < 0.05, **) p < 0.01, ***) p < 0.001,****) p < 0.0001 compared to the control group without drug or TBOA treatment; Two-way ANOVA with Tukey post-test
# as §1
# [2] = test system: SLC1A1 localization in HCT116 cells; assay: Immunofluorescence analysis of SLC1A1 subcellular localization; details: 48 h
# Method: Immunofluorescence analysis was carried out essentially as in [47]. Cells grown on glass coverslips were fixed in 2 % paraformaldehyde, washed in TBST, permeabilized for 5 min (0.5 % Triton X-100 in TBST), blocked for 30 min in 5 % BSA in TBST, incubated with SLC1A1 primary antibody in TBST + 1 % BSA overnight at 4 °C, washed in TBST, and with Rhodamine-phalloidin and AlexaFluor488 conjugated secondary antibody (1:600 in TBS + 1 % BSA) for 1 h, followed by washing in TBST, and mounting in N-propyl-galleate mounting medium (2 % w/v in PBS/glycerol). DAPI was added for 3 min following incubation with the secondary antibody. Cells were visualized using the 60X/1.35 NA objective of an Olympus Bx63 epifluorescence microscope. […] Overlays were carried out using Adobe Photoshop software. No other image adjustment was performed.
# [3] = parental HCT116 cells, 0.8 μM SN38 or 20 μM oxaliplatin
SMILES,"effect on cellular GSH levels ([1]; 350 μM DL-TBOA, HCT116 and LoVo parental and resistant cells)","effect on cellular level of p21 (p21^WAF1/Cip (p21); DL-TBOA, HCT116 and LoVo cells)","effect on chemotherapy-induced p53 induction (p53; 350 μM DL-TBOA concomitant to SN38 or oxaliplatin, parental and drug-resistant HCT116 and LoVo)","effect on SLC1A1 localization ([2]; SN38-resistant HCT116 cells, 350 μM DL-TBOA added to chemotherapeutic treatment)","effect on intracellular SLC1A1 localization ([2]; oxaliplatin-resistant HCT116 cells, control and oxaliplatin-treated, 350 μM DL-TBOA)","effect on SLC1A1 localization ([2]; parental HCT116 cells, 350 μM DL-TBOA alone or with chemotherapeutic agents)","effect on cellular GSH levels [1, 3]",p21 protein level (p21^WAF1/Cip (p21); SN38-resistant HCT116 cells),p21 protein level (p21^WAF1/Cip (p21); parental HCT116 cells),p53 protein level (p53; SN38-resistant HCT116 cells),p53 protein level (p53; parental HCT116 cells),"SLC1A1 subcellular localization [2, 3]"
"N[C@H](C(=O)O)[C@H](OCc1ccccc1)C(=O)O (racemic) [TBOA, DL-Threo-β-Benzyloxyaspartic acid]",no detectable effect,did not significantly alter,apparent decrease in p53 induction,increased the fraction of SLC1A1 fluorescence localized to the perinuclear/nuclear compartment,partially reversed,no detectable effect on SLC1A1 localization,–,–,–,–,–,–
O=C(O)C(=O)O.[NH-][C@@H]1CCCC[C@H]1[NH-].[Pt+2] [oxaliplatin],–,–,–,–,–,–,slightly increased GSH levels,retained,markedly induced,retained,markedly induced,marked shift in SLC1A1 localization towards the perinuclear/nuclear region
